A word on the IC50: it is the concentration at which inhibition is half-maximal.

The target in one assay is T1, bovine COX-1 (Bos taurus, UniProt O62664).
T1 construct: purchased Cayman Chemicals
T1 sequence (O62664 25-600): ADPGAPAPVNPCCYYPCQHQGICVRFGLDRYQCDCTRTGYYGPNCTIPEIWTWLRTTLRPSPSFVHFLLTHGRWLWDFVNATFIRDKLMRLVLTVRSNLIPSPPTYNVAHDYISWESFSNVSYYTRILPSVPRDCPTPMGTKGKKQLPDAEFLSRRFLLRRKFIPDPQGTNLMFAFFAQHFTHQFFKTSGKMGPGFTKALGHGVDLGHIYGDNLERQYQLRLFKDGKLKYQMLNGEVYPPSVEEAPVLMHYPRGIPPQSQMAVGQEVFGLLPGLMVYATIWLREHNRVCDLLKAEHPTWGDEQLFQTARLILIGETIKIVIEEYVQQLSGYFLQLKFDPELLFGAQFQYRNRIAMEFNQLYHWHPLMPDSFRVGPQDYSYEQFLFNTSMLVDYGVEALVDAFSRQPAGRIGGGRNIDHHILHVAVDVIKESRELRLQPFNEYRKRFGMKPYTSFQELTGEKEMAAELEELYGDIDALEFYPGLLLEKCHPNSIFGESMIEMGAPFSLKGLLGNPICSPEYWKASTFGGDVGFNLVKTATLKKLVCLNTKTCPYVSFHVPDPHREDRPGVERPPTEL
The assay can be described thus: Activity of isolated COX-1. It counts as biochemical. On the procedure:
Purified bovine COX-1 (Cayman Chemicals; 50 units) or human recombinant COX-2 (Cayman Chemicals; 20 units) in 100 mM Tris buffer pH 8, 5 mM glutathione, 5 µM hemoglobin, and 100 µM EDTA were pre-incubated with LCMs for 5 min at 4 °C followed by 1 min at 37 °C. Formation of COX-derived 12(S)-hydroxy-5-cis-8,10-trans-heptadecatrienoic acid (12-HHT) was initiated by addition of AA (COX-1: 5 μM; COX-2: 2 μM).

Assay [1] concerns the target T2, human recombinant LTC4 synthase (LTC4S) (Homo sapiens, UniProt Q16873).
T2 construct: expressed in transfected cells; host or cells: HEK-293 cells stably expressing LTC4S (microsomal membranes)
T2 sequence (Q16873 1-150): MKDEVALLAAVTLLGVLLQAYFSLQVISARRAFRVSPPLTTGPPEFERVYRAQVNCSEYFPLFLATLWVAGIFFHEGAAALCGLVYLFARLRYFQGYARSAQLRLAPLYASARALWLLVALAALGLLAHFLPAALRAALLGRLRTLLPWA
The assay is described as follows: LTC4 synthase activity. It counts as biochemical. On the procedure: To investigate the effect of LCMs on LTC4S activity, we used microsomal membranes from HEK-293 cells stably expressing LTC4S[70]. […] The conversion of LTA4 to LTC4 methyl esters was initiated by addition of LTA4 methyl ester (Cayman Chemicals; 1 µM). After 10 min at 4 °C, the reaction was terminated by ice-cold methanol (one volume), and LTC-d5 methyl ester (5 ng; Cayman Chemicals) was added as internal standard. LTC4 was extracted and analyzed by UPLC-MS/MS as described for lipid mediators. Vehicle (DMSO)-treated microsomal membranes produced 7.1 ± 0.5 nmol LTC4.

The test system of a further assay is intracellular Ca^2+. The assay can be described thus: Intracellular Ca2+ in fMLP-stimulated PMNL. It counts as cell-based, human. On the procedure: PMNL (1 × 10^6) were incubated with Fura-2/AM (Thermo Fisher Scientific; 2 nmol) for 45 min at 37 °C, washed, resuspended in PBS pH 7.4 plus 1 mg/ml glucose and transferred to fluorescene 96-well microplates (Greiner). After pre-incubation with compounds for 10 min, 1 mM Ca^2+ was added, and cells were stimulated with fMLP (1 µM) for another 10 min. Intracellular Ca^2+ concentrations were determined using a thermally (37 °C) controlled NOVOstar fluorescence microplate reader [BMG Labtech, Ortenberg, Germany; emission at 510 nm, excitation at 340 nm (Ca^2+-bound Fura-2) and 380 nm (free Fura-2)][17]. The maximal fluorescence signal was recorded after lysis of […] with Triton X-100, and the minimal fluorescence was assessed by adding 20 mM EDTA to chelate Ca^2+. The difference in the signal ratio obtained with Triton X-100 and Triton X-100 plus 20 mM EDTA was set to 100% for each experiment.

The target in another assay is T3, COX-2 (Homo sapiens, UniProt P35354).
T3 sequence (P35354 18-604): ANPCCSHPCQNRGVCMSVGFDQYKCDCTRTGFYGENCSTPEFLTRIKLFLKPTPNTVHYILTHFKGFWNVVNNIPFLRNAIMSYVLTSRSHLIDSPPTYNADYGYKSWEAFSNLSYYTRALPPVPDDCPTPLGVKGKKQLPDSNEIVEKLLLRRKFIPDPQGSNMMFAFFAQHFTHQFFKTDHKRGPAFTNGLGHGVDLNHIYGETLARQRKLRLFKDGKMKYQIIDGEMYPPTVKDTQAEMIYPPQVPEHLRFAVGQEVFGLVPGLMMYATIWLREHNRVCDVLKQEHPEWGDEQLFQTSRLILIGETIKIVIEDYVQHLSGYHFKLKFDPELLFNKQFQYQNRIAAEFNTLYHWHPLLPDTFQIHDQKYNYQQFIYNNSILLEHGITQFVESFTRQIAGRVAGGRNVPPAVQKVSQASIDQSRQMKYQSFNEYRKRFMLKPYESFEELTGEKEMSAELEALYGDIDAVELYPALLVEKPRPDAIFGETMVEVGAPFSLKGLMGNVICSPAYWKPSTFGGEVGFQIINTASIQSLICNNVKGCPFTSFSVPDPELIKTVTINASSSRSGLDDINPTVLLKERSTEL
The assay is described as follows: COX-2-dependent PGE2 formation in LPS-activated monocytes. The assay is classed as cell-based. Set-up: endogenous in cells; host or cells: human monocytes, LPS-stimulated for 24 h. The note with it: up to 10 µM. Here is the method:
Cells were washed and medium was exchanged. Freshly isolated PMNL (1 × 10^7) and stably transfected HEK-293 (1 × 10^6) cells were suspended in PBS pH 7.4 containing 1 mg/ml glucose and 1 mM CaCl2. […] A23187- and A23187/AA-treated PMNL and A23187/AA-treated HEK-293 (5-LO_wt), HEK-293 (5-LO_3W) and HEK-293 (5-LO_Arg101Asp) cells produced 135 ± 21, 636 ± 112, 300 ± 59, 133 ± 29, 55 ± 9 ng 5-LO products, respectively. PMNL synthesized 29 ± 6 ng 12-HETE and 97 ± 23 ng 15-HETE when challenged with A23187/AA. 5-LO products from monocytes were analyzed by UPLC-MS/MS.
LPS-activated monocytes were treated with A23187 (2.5 µM) and AA (20 µM) to induce lipid mediator biosynthesis as described for LO product formation. Human blood was pre-incubated with vehicle (DMSO) or α-T-13′-COOH (4a, 100 nM) for 10 min, primed with LPS (1 µg/ml) for 30 min and stimulated with N-formyl-methionyl-leucyl-phenylalanine (fMLP, Sigma-Aldrich; 1 µM) for 15 min at 37 °C.

Regarding `Cc1c(C)c2c(c(C)c1O)CC[C@@](C)(CCCC(C)CCCC(C)CCCC(C)C(=O)O)O2` (stereo partly drawn) [4a, 13-((2R)-6-hydroxy-2,5,7,8-tetramethylchroman-2-yl)-2,6,10-trimethyltridecanoic acid], the IC50 on bovine COX-1 was more than 10 µM; in assay [1] it was 9.9 µM. The “effect on intracellular Ca^2+” value in the assay on intracellular Ca^2+ is recorded as “neither affected”. On COX-2, the “inhibition of COX-2-dependent PGE2 formation in activated human monocytes” value was “not inhibited”.

These data come from paper PMC6148290, “Endogenous metabolites of vitamin E limit inflammation by targeting 5-lipoxygenase” (Nature Communications, 2018).
